Tests used:
PD1/PD-L1 = PD1/PD-L1 (Homo sapiens, UniProt Q9NZQ7); assay: NFAT activity test (TCR Activitor/PD-L1 CHO cells with PD-1/NFAT Reporter-Jurkat cells); format: cell-based; set-up: host or cells: TCR Activitor/PD-L1 CHO cells; PD-1/NFAT Reporter-Jurkat cells; conditions: TCR Activitor/PD-L1 CHO cells + PD-1/NFAT Reporter-Jurkat cells, 5 hours, luciferase; for IC50: read-out: IC50, inhibitory activity on PD1/PD-L1 binding (NFAT activity test)
From the text: Experimental Example 3: NFAT Activity Test
The engineered T cell expresses PD-1 molecules and T cell receptor (TCR) on the surface, which can activate the NFAT signaling pathway of T cells after co-culturing with engineered antigen presenting cells (APCs). Expression of PD-L1 molecules on APCs can effectively attenuate the NFAT signaling pathway in T cells. PD-L1 inhibitors can be used effectively block the PD-1/PD-L1 regulatory mechanism, thereby reversing the weakened NFAT signaling pathway. After being pretreated with APC, the small molecule is co-cultured with T cells, then the expression of luciferase was detected to indirectly reflect the activation of the NFAT pathway in T cells.
The PD1/PD-L1 NFAT detection kit was purchased from BPS Biosciences. Birght-Glo reagent was purchased from Promega. Nivo multi-label analyzer (PerkinElmer).
The TCR Activitor/PD-L1 CHO cells with a growth confluence of 80% were plated into the plate at 35,000 cells per well and placed in a 37° C. cell culture incubator overnight; the compounds to be tested were diluted 5-fold to the 8th concentration, from 20 μM to 0.25 nM, and the DMSO concentration was 2%, a double-well experiment was set up. The TCR Activitor/PD-L1 CHO cell supernatant was discarded, 50 μl of compound working solution was added to each well, incubated at 37° C. for 30 minutes; after the incubation was completed, 50 μL of PD-1/NFAT Reporter-Jurkat cell suspension with a concentration of 4*10^5 cells/mL was added to each well, incubated at 37° C. for 5 hours. After the incubation was completed, 100 μL Bright-Glo was added to each well, and after mixing, the chemiluminescence signal was detected by a Nivo multi-label analyzer.
Using the equation (sample−Min)/(Max−Min)×100% to convert the raw data into inhibition rate, and the IC50 value can be obtained by curve fitting with four parameters (obtained from log(inhibitor) vs. response—Variable slope mode in GraphPad Prism). Table 3 provides the inhibitory activity of the compounds of the examples of the present disclosure on PD1/PD-L1 binding.

[1] = molecular target: T1, PD-L1 in MDA-MR-231 cells (Homo sapiens, UniProt Q9NZQ7); assay: Effect on expression level of PD-L1 in MDA-MR-231 cells (FACS); format: cell-based; conditions: 24 hours incubation, FACS detection of cell surface PD-L1
T1 construct: endogenous in cells; host or cells: MDA-MB-231
T1 sequence (Q9NZQ7 19-290): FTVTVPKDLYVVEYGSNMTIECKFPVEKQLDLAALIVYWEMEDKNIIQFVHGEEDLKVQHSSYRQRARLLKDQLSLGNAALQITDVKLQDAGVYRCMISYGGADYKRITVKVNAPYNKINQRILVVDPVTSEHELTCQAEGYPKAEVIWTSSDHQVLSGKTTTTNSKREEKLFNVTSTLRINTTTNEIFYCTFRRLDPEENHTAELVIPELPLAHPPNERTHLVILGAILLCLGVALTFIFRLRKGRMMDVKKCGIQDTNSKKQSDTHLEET
Method: Experimental Example 2: Using MDA-MR-231 Cells to Detect the Effect of Compounds on the Expression Level of PD-L1
The use of a triple-negative breast cancer cell line (MDA-MB-231) is an indirect method to assess PD-L1 endocytosis. PD-L1 molecules on the cell surface can be degraded by lysosomal and proteasome pathways, and small molecule inhibitors are added to induce PD-L1 endocytosis. After co-incubating small molecules with MDA-MB-231 cells for 24 hours, flow cytometry (Fluorescence-activated Cell Sorting, FACS) is used to detect the content of PD-L1 on the cell surface, which can indirectly reflect the effect of small molecule-induced PD-L1 endocytosis. Flow cytometry (FACS) is used to detect the effect of the compounds of the present disclosure on the expression level of PD-L1 in MDA-MR-231 cells.
Phosphate buffer (DPBS), 1640 medium, penicillin-streptomycin, fetal bovine serum, non-essential amino acids, 2-hydroxy-1-ethanethiol (2-ME), human interferon γ, LIVE/DEAD staining solution, staining buffer, fixation buffer, 0.25% trypsin, EDTA, anti-human PD-L1, anti-human PD-L1 isotype.
1640 complete medium preparation: 50 mL of fetal bovine serum, 5 mL of non-essential amino acids, 5 mL of penicillin-streptomycin and 0.5 mL of 2-hydroxy-1-ethanethiol were added to 439.5 mL of 1640 medium, and evenly mixed.
10 mM EDTA preparation: 1 mL of 0.5M EDTA was added to 49 mL of DPBS, and evenly mixed.
1) MDA-MB-231 cell counting and plating: The culture flask was taken out, the medium was removed and the culture flask was rinsed once with DPBS. After the culture flask was rinsed, 3 mL of 0.25% trypsin was added to the culture flask and the culture flask was placed in a 37° C. incubator for 1.5 min. The culture flask was taken out, 9 mL of 1640 complete medium was added to stop the reaction, the cells was transferred to a 50 mL centrifuge tube, and centrifuged at 1000 rpm for 5 min at 37° C. An appropriate volume of medium was added to re-suspend the cells according to the number of cells, and the number of cells was counted with a cell counter. The cell concentration was adjusted to 5×10^5 cells/mL with medium. Planking: A volume of 200 μL of cell suspension was added to each well of a 96-well plate, ensure that the number of cells in each well was 1×10^5. The cells were incubated overnight in an incubator. 2) Drug incubation: 100-fold dilution of compounds were prepared, and the drug was subjected to a 5-fold gradient dilution. 2 μL of each 100-fold dilution of compounds were added to each well. The cells were incubated in an incubator at 37° C. for 24 hours. 3) PD-L1 cell staining and FACS detection: the culture plate was taken out and the supernatant medium was discarded. The cells were washed once with 200 μL 1×PBS. 100 μL of EDTA (final concentration of 10 mM) was added to the cell suspension, and the cell suspension was treated at 37° C. for 10 min. Then after the cell suspension was centrifuged at 1500 rpm for 5 min, the cell suspension was washed once with 200 μL of staining solution. Staining: anti-human PD-L1 (2 μL per well) and LIVE/DEAD staining solution (1:1000) were diluted in staining solution, 50 μL of the staining solution was added to each well, and the staining was conducted at 4° C. for 30 min. Then the solution was washed twice with 200 μL of staining solution. Fixation: 100 μL of fixing solution was added to each well, the fixation was conducted at 4° C. for 15 min. The solution was then washed twice with 200 μL of staining solution, and 150 μL of solution was added to re-suspend the cells, followed by FACS detection.
Table 2 provides the effects of the compounds of the examples of the present disclosure on the expression level of PD-L1 in MDA-MR-231 cells.

[2] = Pharmacokinetic test in C57BL/6 mice; format: in vivo; conditions: mouse, plasma, male C57BL/6 mice
Method: Experimental Example 4: Pharmacokinetic Test
Experimental purpose: To study the pharmacokinetics of compounds in C57BL/6 mice.
Experimental materials: C57BL/6 mice (male, 8 weeks old, body weight 25 g-30 g)
Experimental operation: The pharmacokinetic characteristics of rodents after intravenous (IV) and oral (PO) administration of compounds were tested in standard protocols. In the experiment, the candidate compounds were formulated into 1 mg/mL clear solutions, and administered to mice via a single intravenous injection and oral administration. The vehicle of intravenous and oral administration was 5% DMSO/5% polyethylene glycol 15-hydroxystearate (Solutol)/90% aqueous solution. Four male C57BL/6 mice were used in the experiment, wherein two mice were administered intravenously at a dose of 1 mg/kg, and the plasma samples were collected 0.0833, 0.25, 0.5, 1, 2, 4, 6, 8 and 24 h after administration, the other two mice were given oral gavage at a dose of 10 mg/kg, and the plasma samples were collected 0.25, 0.5, 1, 2, 4, 6, 8, and 24 h after administration. Whole blood samples within 24 hours were collected, centrifuged at 3000 g for 15 minutes, and the supernatant was separated to obtain plasma samples. Acetonitrile solution containing internal standard was added thereto to precipitate proteins, the mixture was thoroughly mixed and centrifuged to obtain the supernatant for injection. The plasma concentration was quantified by LC-MS/MS analysis method, and the pharmacokinetic parameters were calculated, such as peak concentration (Cmax), clearance (CL), half-life (T1/2), […] (Vdss), area under the drug-time curve (AUC0-last), bioavailability (F) and so on.

Chain of PD1/PD-L1 (Q9NZQ7 19-290): as above

SMILES	Maximum effect (induction fold) (PD1/PD-L1)	IC50 (PD1/PD-L1) [nM]	IC50 [1] [nM]	bioavailability ([2]; PO 10 mg/kg vs IV 1 mg/kg, read-out: Bioavailability F) [%]	Cmax ([2]; IV 1 mg/kg, PO 10 mg/kg (route not given for Cmax), read-out: Peak concentration Cmax) [nM]	clearance ([2]; IV 1 mg/kg, read-out: Clearance CL) [mL/min/kg]	half-life ([2]; IV 1 mg/kg, read-out: Half-life T1/2 (IV) (converted)) [h]	Vd ([2]; IV 1 mg/kg, read-out: Tissue distribution Vdss) [L/kg]	AUC(0-t) ([2]; PO 10 mg/kg, read-out: Area under the drug-time curve AUC0-last PO) [µM·h]
COc1nc(-c2cccc(-c3cccc(NC(=O)c4cc(C)c5c(n4)CN(CCO)CC5)c3Cl)c2Cl)cnc1CN1CCC(CO)C1 (centres unmarked) [Compound 33]	4.14	18.9	6.99						
COc1nc(-c2cccc(-c3cccc(NC(=O)c4cc(C)c5c(n4)CN(CCO)CC5)c3Cl)c2Cl)cnc1CN1CCC2(CNC(=O)C2)C1 (centres unmarked) [Compound 32]	4.93	52.2	5.53						
COc1nc(-c2cccc(-c3cccc(NC(=O)c4cc(C)c5c(n4)CN(CCO)CC5)c3Cl)c2Cl)cnc1CN1CC(CO)C1 [Compound 35]	4.44	17.5	5.18						
COc1nc(-c2cccc(-c3cccc(NC(=O)c4cc(C#N)c5c(n4)CN(CCO)CC5)c3Cl)c2Cl)cnc1CN1CC(O)C1 [Compound 45]	4.37	45.4	7.81						
COc1nc(-c2cccc(-c3cccc(NC(=O)c4cc(C)c5c(n4)CN(CCO)CC5)c3Cl)c2Cl)cnc1CNCC1CCC(=O)N1 (centres unmarked) [Compound 38]	4.40	50.8	8.86						
COc1nc(-c2cccc(-c3cccc(NC(=O)c4cc(C)c5c(n4)CN(CCO)C5)c3Cl)c2Cl)cnc1CN1CC(O)C1 [Compound 50]	4.55	45.8		63.5	221	85.5	3.72	18.3	1.66
Cc1cc(C(=O)Nc2cccc(-c3cccc(NC(=O)c4ccc(CNCCO)cn4)c3Cl)c2Cl)nc2c1CCN(CCO)C2 [Compound 5]	3.68	16.2	32.7						
COc1nc(-c2cccc(-c3cccc(NC(=O)c4cc(C)c5c(n4)CN(CCO)CC5)c3Cl)c2Cl)cnc1CN1CC2(CC(O)C2)C1 [Compound 39]	4.62	11.9	5.52						
COc1nc(-c2cccc(-c3cccc(NC(=O)c4cc(OCc5cncc(C#N)c5)c5c(n4)CN(CCO)CC5)c3Cl)c2Cl)cnc1CN1CC(O)C1 [Compound 51]	4.28	47.9	25.8						
COc1nc(-c2cccc(-c3cccc(NC(=O)c4cc(C)c5c(n4)CN(CCO)CC5)c3Cl)c2Cl)cnc1CN1CC(C)(O)C1 [Compound 25]	3.39	29.2	9.97						
COc1nc(-c2cccc(-c3cccc(NC(=O)c4cc(C(F)(F)F)c5c(n4)CN(CCO)CC5)c3Cl)c2Cl)cnc1CN1CC(O)C1 [Compound 46]	5.56	571	22.6						
COc1cc(C(=O)Nc2cccc(-c3cccc(-c4cnc(CN5CC(O)C5)c(OC)n4)c3Cl)c2Cl)nc2c1CCN(CCO)C2 [Compound 41]	3.50	29.2	5.27						
COc1nc(-c2cccc(-c3cccc(NC(=O)c4cc(C)c5c(n4)CN(CCO)CC5)c3Cl)c2Cl)cnc1CN1CCCC1CO (centres unmarked) [Compound 40]	3.72	46.1	22.5						
Cc1cc(C(=O)Nc2cccc(-c3cccc(NC(=O)c4ccc(CNCCO)cn4)c3C)c2Cl)nc2c1CCN(CCO)C2 [Compound 9]	3.77	32.6	41.1						
COc1nc(-c2cccc(-c3cccc(NC(=O)c4cc(C)c5c(n4)CN(CCO)CC5)c3C#N)c2Cl)cnc1CN1CC(O)C1 [Compound 47]	4.01	52	37.2						
COc1nc(-c2cccc(-c3cccc(NC(=O)c4cc(OC(F)F)c5c(n4)CN(CCO)CC5)c3Cl)c2Cl)cnc1CN1CC(O)C1 [Compound 48]	3.80	21.2	8.93						

— patent US20220402917A1, “COMPOUND AS SMALL MOLECULE INHIBITOR PD-1/PD-L1 AND APPLICATION THEREOF” (MEDSHINE DISCOVERY INC., priority 2019, published 2022)
